# Laboratory results: patent publication US8232407B2, “Nitrogenous heterocyclic compounds with insecticidal activity, and the preparation and use thereof” (East China University of Science and Technology, priority 2008, dated 2012)
# Key:
# Assay type in all cases: in vivo
# Plutella xylostella = test: Insecticidal activities to diamondback moth, feeding dipped leaves; conditions: for Plutella xylostella Mortality (%) 500 ppm: in vivo
# Summary of the method: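 Leaf-dip feeding assay: fresh cabbage leaves dipped 3 s in test solution, air-dried and fed to Plutella xylostella, 10 insects per treatment, three replicates, water control. Deaths counted after 24 h; mortality corrected against survival in the control group.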
# [1] = system: Pseudaletia separate Walker; test: Insecticidal activities to armyworm, leaf dipping and feeding
# Summary of the method: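 Maize leaves dipped 3 s in acetone-formulated compound at 500 down to 1.57 ppm, dried and fed to armyworms, 10 insects per treatment in triplicate, aqueous acetone as control. Mortality was counted after 24 hours and corrected against control survival.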
# Aphis craccivoral = test: Insecticidal activities to aphids, immersion method; conditions: for Aphis craccivoral Mortality (%) 500 ppm: in vivo
# Summary of the method: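 Wingless adult aphids feeding on bean sprouts were dipped 5 s in 500 ppm compound (DMF stock diluted in 0.2 mL/L aqueous Triton X-100), blotted and held at 23° C. Dead counted at 24 h, three replicates; mortality corrected against Triton-only controls.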
# Nilaparvata lugens = test: Insecticidal activities to plant hopper, spraying method; conditions: for Nilaparvata lugens Mortality (%) 500 ppm: in vivo
# Summary of the method: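 Nilaparvata lugens, 10 insects per tumbler, sprayed with 2 ml compound in acetone at 0.79-500 ppm, three replicates, aqueous acetone control. Dead insects counted after 24 h; mortality corrected against control survival.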
Structure (SMILES),Plutella xylostella Mortality (%) 500 ppm (Plutella xylostella) [%],Pseudaletia separate Walker Mortality (%) 500 ppm ([1]; in vivo) [%],Aphis craccivoral Mortality (%) 500 ppm (Aphis craccivoral) [%],Nilaparvata lugens Mortality (%) 500 ppm (Nilaparvata lugens) [%],"mortality at 500 ppm (Plutella xylostella; Plutella xylostella, 500 ppm, feeding dipped leaves, counted after 24 hours, read-out: Plutella xylostella Mortality (%) 500 ppm) [%]","Pseudaletia separate Walker Mortality (%) 500 ppm ([1]; 500 ppm, leaf dipping and feeding, counted after 24 hours) [%]","mortality at 500 ppm (Aphis craccivoral; Aphis, 500 ppm, immersion method, read-out: Aphis craccivoral Mortality (%) 500 ppm) [%]","mortality at 500 ppm (Nilaparvata lugens; Nilaparvata lugens, 500 ppm, spraying method, counted after 24 hours, read-out: Nilaparvata lugens Mortality (%) 500 ppm) [%]"
O=[N+]([O-])C(=Cc1ccc(Cl)o1)C1=NCCN1Cc1ccc(Cl)nc1 [Compound 4],100,100,100,100,–,–,–,–
O=[N+]([O-])C(=Cc1cnco1)C1=NCCN1Cc1ccc(Cl)nc1 [Compound 33],100,100,100,100,–,–,–,–
O=[N+]([O-])C(=Cc1cc(Cl)c(Cl)o1)C1=NCCN1CC1CCOC1 (stereo not drawn) [Compound 98],77,68,76,90,–,–,–,–
O=[N+]([O-])C(=Cc1ccoc1)C1=NCCN1Cc1cnc(Cl)s1 [Compound 69],100,100,100,100,–,–,–,–
O=[N+]([O-])C(=Cc1ccc([N+](=O)[O-])s1)C1=NCCCN1Cc1ccc(Cl)nc1 [Compound 63],100,100,98,100,–,–,–,–
O=[N+]([O-])C(=Cc1ccncc1)C1=NCCN1Cc1ccc(Cl)nc1 [Compound 39],21,35,24,35,–,–,–,–
CC(c1ccc(Cl)nc1)N1CCN=C1C(=Cc1ccc(Cl)o1)[N+](=O)[O-] (racemic) [Compound 125],100,98,100,100,–,–,–,–
CCc1ccc(C=C(C2=[N+](C)CCN2Cc2ccc(Cl)nc2)[N+](=O)[O-])o1.[Cl-] [Compound 257],100,100,100,100,–,–,–,–
C[N+]1=C(C(=Cc2ccoc2)[N+](=O)[O-])N(Cc2ccc(Cl)nc2)CC1.[Cl-] [Compound 245],100,100,100,100,–,–,–,–
"O=[N+]([O-])/C(=C/c1ccco1)C1=NCCN1Cc1ccc(Cl)nc1 [Compound 1, 2-chloro-5-((2-(2-(furan-2-yl)-1-nitrovinyl)-4,5-dihydroimidazol-1-yl)-methyl) pyridine]",–,–,–,–,100,100,100,100
O=[N+]([O-])C(=Cc1ccc(Br)s1)C1=NCCN1Cc1cnc(Cl)s1 [Compound 87],100,100,100,100,–,–,–,–
O=[N+]([O-])C(=Cc1cccnc1)C1=NCCN1Cc1ccc(Cl)nc1 [Compound 38],87,95,97,100,–,–,–,–
O=[N+]([O-])C(=Cc1ccco1)C1=NCCN1Cc1ccccc1 [Compound 103],25,70,86,100,–,–,–,–
CC(c1ccc(Cl)nc1)N1CCN=C1C(=Cc1ccco1)[N+](=O)[O-] (racemic) [Compound 121],56,100,100,100,–,–,–,–
O=[N+]([O-])C(=Cc1cccs1)C1=NCCN1Cc1cnc(Cl)s1 [Compound 83],100,100,100,100,–,–,–,–
O=[N+]([O-])C(=Cc1ccc([N+](=O)[O-])o1)C1=NCCN1Cc1ccccc1 [Compound 105],90,98,80,100,–,–,–,–
O=[N+]([O-])C(=Cc1cc(Br)co1)C1=NCCN1CC1CCOC1 (stereo not drawn) [Compound 97],86,90,76,88,–,–,–,–

Structure (SMILES),Plutella xylostella Mortality (%) 500 ppm (Plutella xylostella) [%],Pseudaletia separate Walker Mortality (%) 500 ppm ([1]; in vivo) [%],Aphis craccivoral Mortality (%) 500 ppm (Aphis craccivoral) [%],Nilaparvata lugens Mortality (%) 500 ppm (Nilaparvata lugens) [%],"mortality at 500 ppm (Plutella xylostella; Plutella xylostella, 500 ppm, feeding dipped leaves, counted after 24 hours, read-out: Plutella xylostella Mortality (%) 500 ppm) [%]","Pseudaletia separate Walker Mortality (%) 500 ppm ([1]; 500 ppm, leaf dipping and feeding, counted after 24 hours) [%]","mortality at 500 ppm (Aphis craccivoral; Aphis, 500 ppm, immersion method, read-out: Aphis craccivoral Mortality (%) 500 ppm) [%]","mortality at 500 ppm (Nilaparvata lugens; Nilaparvata lugens, 500 ppm, spraying method, counted after 24 hours, read-out: Nilaparvata lugens Mortality (%) 500 ppm) [%]"
O=[N+]([O-])C(=Cc1ccc(CO)o1)C1=NCCN1Cc1cnc(Cl)s1 [Compound 82],100,100,100,100,–,–,–,–
CC[N+]1=C(C(=Cc2ccc([N+](=O)[O-])o2)[N+](=O)[O-])N(Cc2ccc(Cl)nc2)CC1.[Cl-] [Compound 287],100,100,100,100,–,–,–,–
O=[N+]([O-])C(=Cc1ccc[nH]1)C1=NCCN1Cc1ccc(Cl)nc1 [Compound 31],100,100,100,100,–,–,–,–
O=[N+]([O-])C(=Cc1ccc(Cl)s1)C1=NCCN1Cc1cnc(Cl)s1 [Compound 86],100,100,100,100,–,–,–,–
CC(c1ccc(Cl)nc1)N1CCN=C1C(=Cc1ccc([N+](=O)[O-])s1)[N+](=O)[O-] (racemic) [Compound 129],80,100,100,100,–,–,–,–
CC(c1ccc(Cl)nc1)N1CCN=C1C(=Cc1cccs1)[N+](=O)[O-] (racemic) [Compound 127],100,100,100,100,–,–,–,–
O=[N+]([O-])C(=Cc1cc(Br)c(Br)o1)C1=NCCN1Cc1ccccc1 [Compound 110],51,85,58,23,–,–,–,–
O=[N+]([O-])C(=Cc1ccc(F)nc1)C1=NCCN1Cc1ccc(Cl)nc1 [Compound 41],100,100,89,87,–,–,–,–
O=[N+]([O-])C(=Cc1ccc(Br)o1)C1=NCCCN1Cc1ccc(Cl)nc1 [Compound 50],100,100,100,100,–,–,–,–
C[N+]1=C(C(=Cc2ccco2)[N+](=O)[O-])N(Cc2ccc(Cl)nc2)CC1.[Cl-] [Compound 244],100,100,100,100,–,–,–,–
O=[N+]([O-])C(=Cc1cccs1)C1=NCCCN1Cc1ccc(Cl)nc1 [Compound 61],100,100,100,100,–,–,–,–
O=[N+]([O-])C(=Cc1cnc[nH]1)C1=NCCN1Cc1ccc(Cl)nc1 [Compound 36],100,100,98,89,–,–,–,–
CCc1ccc(C=C(C2=NCCN2Cc2ccc(Cl)nc2)[N+](=O)[O-])o1 [Compound 14],100,100,100,100,–,–,–,–
C[N+]1=C(C(=Cc2ccc([N+](=O)[O-])s2)[N+](=O)[O-])N(Cc2ccc(Cl)nc2)CC1.[Cl-] [Compound 261],100,100,100,100,–,–,–,–
O=[N+]([O-])C(=Cc1cc(Cl)c(Cl)s1)C1=NCCN1Cc1ccc(Cl)nc1 [Compound 23],100,100,100,100,–,–,–,–
O=[N+]([O-])C(=Cc1cc(Br)cs1)C1=NCCCN1Cc1ccc(Cl)nc1 [Compound 67],100,90,65,83,–,–,–,–
